Measured values as given in patent US8449635B2, “Abrasive articles and methods for making same” (Saint-Gobain Abrasives, Inc., priority 2007, dated 2013).

Assay: Solubility of photoinitiator
Type: physicochemical

Cc1cc(C)c(C(=O)P(=O)(C(=O)c2c(C)cc(C)cc2C)c2ccccc2)c(C)c1 [Irgacure 819, bis(2,4,6-trimethylbenzoyl) phenyl phosphine oxide]
Solubility (wt %): <5 wt %
